Where two headings read alike, the source gives them in different places.
Assays:
[1] = Metabolic stability in rat liver microsomes; assay type: in vitro ADME; design: half-life / CLint scaled: dose or concentration left out as unconfirmed; details: for CLint scaled: calculated, read-out: Intrinsic liver clearance rate CLint Rat; for half-life: read-out: Microsomal half-life t1/2 Rat
Description: (ii) Metabolic stability in liver microsomes. The metabolic stability assay was performed in duplicate using 96-deepwell plates. Each compound (0.4 mM) was incubated individually in mouse, rat, and pooled human liver microsomes (0.4 mg/ml) at 37°C in the presence and absence of the cofactor NADPH (1 mM). An aliquot was taken at 0, 5, 10, 30, and 60 min, and the reaction was quenched by adding 300 μl of ice-cold acetonitrile containing the internal standard carbamazepine (0.0236 μg/ml) ([88]). The test compounds in the supernatant were analyzed by means of LC-MS/MS as described in “Sample analysis” below. The normalized data for each sample were used to calculate the in vitro half-life, intrinsic clearance rate, and hepatic extraction ratio from the results of this assay using the following equations ([88]).Equation 1. Normalized area. (1) Normalized area=(Peak area of sample at time point/Peak area of internal standard) Equation 2. Percent parent remaining. (2) % Parent=Normalized peak area of sample at time point/Normalized peak area of sample at t=0×100 Equation 3. Calculated t1/2. (3) t1/2=−0.693/λ where λ is the slope of the ln (% parent remaining) versus time curve of the compound.Equation 4. CLint. (4) CLint=[0.693/t1/2(min)]×[Volume of incubation (μl)/Microsomal protein (μg)] Equation 5. Hepatic extraction ratio. (5) EH=fu×CLint/QH + fu×CLint
Sample extraction. […] The organic layer was then transferred and evaporated under a gentle stream of nitrogen at room temperature for 30 min. The dried samples were reconstituted in mobile phase, and a 5 μl sample was injected for LC-MS/MS analysis. The only exception was the arylurea 10, for which no liquid-liquid extraction was conducted; instead, the 200 μl acetonitrile solution was evaporated under a gentle stream of nitrogen at room temperature. The dried sample was reconstituted in the mobile phase, and a 5 μl sample was injected for LC-MS/MS analysis. The plasma samples for each compound from the in vivo studies were extracted by mixing 350 μl ethyl acetate with 15 μl of plasma sample and 35 μl of universal buffer containing internal standard at pH 8. The samples were vortexed for 1 min and centrifuged for 5 min, and the organic layer was then transferred and evaporated under a gentle stream of nitrogen at room temperature for 30 min. The dried samples were each reconstituted in the mobile phase, and a 5 μl sample was injected for LC-MS/MS analysis.
LC-MS/MS analysis. For all the artemisinins except the arylurea 10, gradient chromatography was performed on a Phenomenex (Torrance, CA, USA) Luna PFP(2) analytical column (100 Å, 5 μm, 2 by 50 mm) and an AB Sciex API 5500 mass spectrometer which was operated at unit resolution in the multiple reaction monitoring (MRM) mode. The HPLC method used was a gradient method with 5 mM ammonium acetate and 0.1% acetic acid in water as the aqueous phase and a mixture of acetonitrile and methanol (1:1 vol/vol) containing 5% of the aqueous phase as the organic phase ([89]). The arylurea 10 was analyzed using a Phenomenex Gemini NX-C18 (5 μm, 2.1 mm by 50 mm) column with an AB Sciex 3200 QTRAP mass spectrometer operated at unit resolution in the MRM mode. The HPLC method used was a gradient method with 5 mM ammonium acetate and 0.1% acetic acid in water as the aqueous phase and a mixture of acetonitrile and methanol (1:1 vol/vol). The transitions of the molecular ions were monitored, as listed in Table S8 in the supporting information. The calibration range was between 0.002 μg/ml and 6.250 μg/ml. Data acquisition and evaluation were performed using Analyst 1.6.2 software (Applied Biosystems, Foster City, CA, USA). The formation of the putative metabolite DHA from the amino-artemisinins and the metabolite M1 of artemisone were evaluated in these mice PK studies; the MRM transitions of DHA and M1 (Table S8) were thus included in the LC-MS/MS assays.

[2] = Plasma protein binding (ultracentrifugation); assay type: in vitro ADME; details: pooled plasma, human plasma, read-out: Plasma protein binding fu
Description: (iii) Plasma protein binding. Plasma protein binding was measured using an ultracentrifugation method. The assay was performed using a 96-well microtiter plate with pooled human plasma spiked with the test compound (10 μM). […] This served as the total concentration sample. After preincubation at 37°C for 1 h, duplicate aliquots of the spiked plasma were transferred to ultracentrifugation tubes and ultracentrifuged for 4 h (216,937 × g, 37°C, Beckman Optima L-80XP). […] Sample extraction. […] LC-MS/MS analysis.

[3] = system: early stage (>90% stage I-III) P. falciparum NF54 gametocytes; details: cited from earlier work
[4] = Table S4, ± SEM, n = 3, ref 4 (supplement; main text 62), read-out: Early stage IC50 (Luciferase 48 h)
[5] = Table S3, ± SEM, ref 1 and 2 (supplement; main text 47, 48), read-out: Early Stage (EG, Luc 48 h) IC50

Row | SMILES | Hepatic extraction ratio EH Rat [1] | CLint scaled [1] [mL/min/kg] | half-life [1] [min] | fraction unbound at 4 h, 10 µM [2] | IC50 [3, 4] [nM] | IC50 [3, 5] [nM]
1 | C[C@@H]1CC[C@H]2[C@@H](C)C(=O)N[C@@H]3O[C@@]4(C)CC[C@@H]1[C@]32OO4 [11-Aza-artemisinin 11, 11-aza-artemisinin] | 0.1 | 9 | > 150 | 0.13 | 170 | –
2 | CO[C@H]1O[C@@H]2O[C@@]3(C)CC[C@H]4[C@H](C)CC[C@@H]([C@H]1C)[C@@]24OO3 [Artemether 3, artemether] | 0.9 | 988 | < 10 | 0.14 | 37.7 ± 2.08 | –
3 | C[C@H]1[C@H](N2CCSCC2)O[C@@H]2O[C@@]3(C)CC[C@H]4[C@H](C)CC[C@@H]1[C@@]24OO3 [Artemiside 5, artemiside] | 1.0 | 1390 | < 10 | 0.23 | – | 16.4 ± 1
4 | C[C@H]1[C@H](N2CCS(=O)(=O)CC2)O[C@@H]2O[C@@]3(C)CC[C@H]4[C@H](C)CC[C@@H]1[C@@]24OO3 [Artemisone 6, artemisone] | 0.9 | 342 | < 10 | 0.14 | – | 1.94
5 | C[C@H]1[C@H](N2CCN(C(=O)Nc3ccc(F)cc3)CC2)O[C@@H]2O[C@@]3(C)CC[C@H]4[C@H](C)CC[C@@H]1[C@@]24OO3 [Arylurea 10] | – | – | – | 0.02 | – | 36 ± 10.2
6 | C[C@H]1[C@@H](O)O[C@@H]2O[C@@]3(C)CC[C@H]4[C@H](C)CC[C@@H]1[C@@]24OO3 [DHA 2, dihydroartemisinin] | 0.4 | 34.7 | 90 | – | – | 43 ± 3.9
7 | C[C@H]1[C@H](N2C=CS(=O)(=O)CC2)O[C@@H]2O[C@@]3(C)CC[C@H]4[C@H](C)CC[C@@H]1[C@@]24OO3 [M1 12] | 0.7 | 108 | 28.8 | 0.25 | – | –
8 | C[C@H]1[C@H](NS(N)(=O)=O)O[C@@H]2O[C@@]3(C)CC[C@H]4[C@H](C)CC[C@@H]1[C@@]24OO3 [Sulfamide 7] | 0.4 | 32.9 | 94.9 | 0.17 | – | 15 ± 2
